Test results reported in ChEMBL document CHEMBL5584227, “Piezo1 and its inhibitors: Overview and perspectives” (Eur J Med Chem, 2024).

Tests used:
[1] = target: Piezo1 (Homo sapiens); assay: Antagonist activity at Yoda1-activated human Piezo1 in HUVECs assessed as inhibition of calcium influx by calcium fluorescence assay
[2] = target: Piezo1 (Homo sapiens); assay: Antagonist activity at human Piezo1
[3] = target: Piezo1 (Homo sapiens); assay: Inhibition of human Piezo1 assessed as intracellular calcium influx measured for 30 mins by Fluo-4 AM dye based fluorescence analysis
[4] = target: Amyloid-beta precursor protein (Homo sapiens, UniProt P05067); assay: Inhibition of amyloid beta (1 to 42) (unknown origin) aggregation incubated for 24 hrs by ThT assay
Amyloid-beta precursor protein, sequence (P05067 whole entry): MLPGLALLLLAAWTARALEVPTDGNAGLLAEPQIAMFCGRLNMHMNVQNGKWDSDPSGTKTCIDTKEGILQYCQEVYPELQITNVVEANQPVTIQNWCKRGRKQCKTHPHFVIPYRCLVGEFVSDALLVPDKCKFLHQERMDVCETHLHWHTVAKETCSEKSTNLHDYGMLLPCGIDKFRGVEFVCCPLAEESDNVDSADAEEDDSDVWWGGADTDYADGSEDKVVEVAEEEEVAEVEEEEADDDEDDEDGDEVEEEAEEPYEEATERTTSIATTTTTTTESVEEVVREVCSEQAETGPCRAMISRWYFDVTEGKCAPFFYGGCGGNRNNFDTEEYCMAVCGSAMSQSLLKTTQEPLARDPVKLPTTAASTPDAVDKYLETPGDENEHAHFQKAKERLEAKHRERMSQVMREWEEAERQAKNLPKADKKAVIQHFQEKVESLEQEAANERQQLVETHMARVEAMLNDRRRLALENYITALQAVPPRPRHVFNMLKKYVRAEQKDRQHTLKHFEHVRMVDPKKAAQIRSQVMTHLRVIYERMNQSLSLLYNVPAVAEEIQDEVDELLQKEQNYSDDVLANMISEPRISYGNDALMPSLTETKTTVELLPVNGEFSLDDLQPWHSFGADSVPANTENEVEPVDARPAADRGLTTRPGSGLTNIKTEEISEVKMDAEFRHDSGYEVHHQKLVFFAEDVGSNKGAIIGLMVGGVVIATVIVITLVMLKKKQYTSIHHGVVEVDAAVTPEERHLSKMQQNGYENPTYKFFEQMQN

Q: `O=C(/C=C/c1ccc(O)c2c1[C@H](C(=O)O[C@H](Cc1ccc(O)c(O)c1)C(=O)O)[C@@H](c1ccc(O)c(O)c1)O2)O[C@H](Cc1ccc(O)c(O)c1)C(=O)O` was tested. Which IC50 [1] did it give?
A: 1370 nM

Q: With `Clc1cccc(Cl)c1CSc1nnc(-c2ccc[nH]2)o1` as the compound, how does the IC50 [2] read?
A: 1300 nM

Q: With `C[C@@H]1O[C@@H](O[C@H]2[C@H](OC(=O)[C@]34CCC(C)(C)C[C@H]3C3=CC[C@@H]5[C@@]6(C)C[C@H](O)[C@@H]7O[C@@H]8O[C@H](CO)[C@@H](O)[C@H](O)[C@H]8O[C@@H]8OC[C@H](O)[C@H](O)[C@H]8OC(=O)CC(C)(O)CC(=O)OC[C@@]7(C)[C@@H]6CC[C@@]5(C)[C@]3(C)CC4)OC[C@H](O)[C@@H]2O)[C@H](O)[C@H](O[C@@H]2OC[C@@H](O)[C@H](O)[C@H]2O)[C@H]1O` (some centres undefined) as the compound, how does the IC50 [3] read?
A: 1110 nM

Q: `CCCCCCCCCCCCCCCCC(=O)O` [HEPTADECANOIC ACID] was tested. Which IC50 [4] did it give?
A: 28300 nM
